Laboratory results: US12077503B2, “Substituted cyclic amides and their use as herbicides” (FMC CORPORATION, priority 2015, dated 2024)

Columns and labels:
Type in all cases: in vivo
[1] = test system: barnyardgrass (Echinochloa crus-galli); assay: Test G Pre-Emergence Protocol; conditions: Echinochloa crus-galli, pre-emergence, 312 h, evaluated after 13 days; for pest or weed control at 15.625 g/ha: 15.625 g ai/ha, read-out: Barnyard grass damage rating (100=total damage to plant; 0=no damage to plant); for pest or weed control at 62.5 g/ha: 62.5 g ai/ha, 100=total damage to plant, 0=no damage to plant, read-out: plant damage rating, Barnyardgrass; for pest or weed control at 250 g/ha: 250 g ai/ha, read-out: Barnyardgrass damage rating (100=total damage to plant; 0=no damage to plant)
Procedure, shortened: (§1)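 Seeds were sown in standard soil and kept one day in a glasshouse (24/16° C day/night, 14 h light, 65% humidity), then sprayed with compound in acetone/water (50:50) containing 0.5% Tween 20 at 15.625, 62.5 or 250 g/ha. Damage was scored after 13 days (0 = none, 100 = total).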

corn (Zea mays) [2] = assay: Test G Pre-Emergence Protocol; conditions: Zea mays, pre-emergence, 312 h, evaluated after 13 days; for plant injury at 15.625 g/ha: 15.625 g ai/ha; for plant injury at 15.625 g/ha / plant injury at 250 g/ha: read-out: Corn damage rating (100=total damage to plant; 0=no damage to plant); for plant injury at 62.5 g/ha: 62.5 g ai/ha, 100=total damage to plant, 0=no damage to plant, read-out: plant damage rating, Corn; for plant injury at 250 g/ha: 250 g ai/ha
Procedure, shortened: as §1

[3] = test system: ivy-leaved morning glory (Ipomoea hederacea); assay: Test G Pre-Emergence Protocol; conditions: Ipomoea, pre-emergence, 312 h, evaluated after 13 days; for pest or weed control at 15.625 g/ha: 15.625 g ai/ha, read-out: Morning-glory, Ivy-leaved damage rating (100=total damage to plant; 0=no damage to plant); for pest or weed control at 62.5 g/ha: 62.5 g ai/ha, 100=total damage to plant, 0=no damage to plant, read-out: plant damage rating, Morningglory, Ivy-leaved; for pest or weed control at 250 g/ha: 250 g ai/ha, read-out: Morningglory, Ivy-leaved damage rating (100=total damage to plant; 0=no damage to plant)
Procedure, shortened: as §1

[4] = test system: velvetleaf (Abutilon theophrasti); assay: Test G Pre-Emergence Protocol; conditions: Abutilon theophrasti, pre-emergence, 312 h, evaluated after 13 days; for pest or weed control at 62.5 g/ha: 62.5 g ai/ha, 100=total damage to plant, 0=no damage to plant, read-out: plant damage rating, Velvetleaf; for pest or weed control at 250 g/ha: 250 g ai/ha; for pest or weed control at 250 g/ha / pest or weed control at 15.625 g/ha: read-out: Velvetleaf damage rating (100=total damage to plant; 0=no damage to plant); for pest or weed control at 15.625 g/ha: 15.625 g ai/ha
Procedure, shortened: as §1

[5] = test system: giant foxtail (Setaria faberi); assay: Test G Pre-Emergence Protocol; conditions: Setaria faberi, pre-emergence, 312 h, evaluated after 13 days; for pest or weed control at 15.625 g/ha: 15.625 g ai/ha; for pest or weed control at 15.625 g/ha / pest or weed control at 250 g/ha: read-out: Foxtail, Giant damage rating (100=total damage to plant; 0=no damage to plant); for pest or weed control at 62.5 g/ha: 62.5 g ai/ha, 100=total damage to plant, 0=no damage to plant, read-out: plant damage rating, Foxtail, Giant; for pest or weed control at 250 g/ha: 250 g ai/ha
Procedure, shortened: as §1

[6] = test system: redroot pigweed (Amaranthus retroflexus); assay: Test G Pre-Emergence Protocol; conditions: Amaranthus retroflexus, pre-emergence, 312 h, evaluated after 13 days; for pest or weed control at 15.625 g/ha: 15.625 g ai/ha; for pest or weed control at 15.625 g/ha / pest or weed control at 250 g/ha: read-out: Pigweed, Redroot damage rating (100=total damage to plant; 0=no damage to plant); for pest or weed control at 62.5 g/ha: 62.5 g ai/ha, 100=total damage to plant, 0=no damage to plant, read-out: plant damage rating, Pigweed, Redroot; for pest or weed control at 250 g/ha: 250 g ai/ha
Procedure, shortened: as §1

[7] = test system: barnyardgrass (Echinochloa crus-galli); assay: Test G Post-Emergence Protocol; conditions: Echinochloa crus-galli, post-emergence, 312 h; for pest or weed control at 15.625 g/ha: 15.625 g ai/ha, evaluated after 13 days (100=total damage to plant; 0=no damage to plant), read-out: Barnyardgrass damage rating; for pest or weed control at 62.5 g/ha: 62.5 g ai/ha, read-out: Barnyardgrass damage rating (100=total damage to plant; 0=no damage to plant); for pest or weed control at 62.5 g/ha / pest or weed control at 250 g/ha: evaluated after 13 days; for pest or weed control at 250 g/ha: 250 g ai/ha, read-out: damage to plant, Barnyardgrass (100=total damage to plant; 0=no damage to plant)
Procedure, shortened: (§2)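 Foliar application was made 8 days after sowing, using an aqueous spray of the active in acetone/water (50:50) with 0.5% Tween 20, at doses of 15.625, 62.5 or 250 g/ha. Injury was assessed 13 days later, where 100 meant the plant was fully damaged.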

corn (Zea mays) [8] = assay: Test G Post-Emergence Protocol; conditions: Zea mays, post-emergence, 312 h; for plant injury at 15.625 g/ha: 15.625 g ai/ha, evaluated after 13 days (100=total damage to plant; 0=no damage to plant), read-out: Corn damage rating; for plant injury at 62.5 g/ha: 62.5 g ai/ha, read-out: Corn damage rating (100=total damage to plant; 0=no damage to plant); for plant injury at 62.5 g/ha / plant injury at 250 g/ha: evaluated after 13 days; for plant injury at 250 g/ha: 250 g ai/ha, read-out: damage to plant, Corn (100=total damage to plant; 0=no damage to plant)
Procedure, shortened: as §2

[9] = test system: ivy-leaved morning glory (Ipomoea hederacea); assay: Test G Post-Emergence Protocol; conditions: Ipomoea, post-emergence, 312 h; for pest or weed control at 15.625 g/ha: 15.625 g ai/ha, evaluated after 13 days (100=total damage to plant; 0=no damage to plant), read-out: Morningglory, Ivy-leaved damage rating; for pest or weed control at 62.5 g/ha: 62.5 g ai/ha, read-out: Morningglory, Ivy-leaved damage rating (100=total damage to plant; 0=no damage to plant); for pest or weed control at 62.5 g/ha / pest or weed control at 250 g/ha: evaluated after 13 days; for pest or weed control at 250 g/ha: 250 g ai/ha, read-out: damage to plant, Morningglory, Ivy-leaved (100=total damage to plant; 0=no damage to plant)
Procedure, shortened: as §2

[10] = test system: velvetleaf (Abutilon theophrasti); assay: Test G Post-Emergence Protocol; conditions: Abutilon theophrasti, post-emergence, 312 h; for pest or weed control at 15.625 g/ha: 15.625 g ai/ha, evaluated after 13 days (100=total damage to plant; 0=no damage to plant), read-out: Velvetleaf damage rating; for pest or weed control at 62.5 g/ha: 62.5 g ai/ha, read-out: Velvetleaf damage rating (100=total damage to plant; 0=no damage to plant); for pest or weed control at 62.5 g/ha / pest or weed control at 250 g/ha: evaluated after 13 days; for pest or weed control at 250 g/ha: 250 g ai/ha, read-out: damage to plant, Velvetleaf (100=total damage to plant; 0=no damage to plant)
Procedure, shortened: as §2

[11] = test system: giant foxtail (Setaria faberi); assay: Test G Post-Emergence Protocol; conditions: Setaria faberi, post-emergence, 312 h; for pest or weed control at 15.625 g/ha: 15.625 g ai/ha, evaluated after 13 days (100=total damage to plant; 0=no damage to plant), read-out: Foxtail, Giant damage rating; for pest or weed control at 62.5 g/ha: 62.5 g ai/ha, read-out: Foxtail, Giant damage rating (100=total damage to plant; 0=no damage to plant); for pest or weed control at 62.5 g/ha / pest or weed control at 250 g/ha: evaluated after 13 days; for pest or weed control at 250 g/ha: 250 g ai/ha, read-out: damage to plant, Foxtail, Giant (100=total damage to plant; 0=no damage to plant)
Procedure, shortened: as §2

[12] = test system: redroot pigweed (Amaranthus retroflexus); assay: Test G Post-Emergence Protocol; conditions: Amaranthus retroflexus, post-emergence, 312 h; for pest or weed control at 15.625 g/ha: 15.625 g ai/ha, evaluated after 13 days (100=total damage to plant; 0=no damage to plant), read-out: Pigweed, Redroot damage rating; for pest or weed control at 62.5 g/ha: 62.5 g ai/ha, read-out: Pigweed, Redroot damage rating (100=total damage to plant; 0=no damage to plant); for pest or weed control at 62.5 g/ha / pest or weed control at 250 g/ha: evaluated after 13 days; for pest or weed control at 250 g/ha: 250 g ai/ha, read-out: damage to plant, Pigweed, Redroot (100=total damage to plant; 0=no damage to plant)
Procedure, shortened: as §2

Compound	pest or weed control at 15.625 g/ha [1]	pest or weed control at 62.5 g/ha [1]	pest or weed control at 250 g/ha [1]	plant injury at 15.625 g/ha (corn (Zea mays) [2])	plant injury at 62.5 g/ha (corn (Zea mays) [2])	plant injury at 250 g/ha (corn (Zea mays) [2])	pest or weed control at 15.625 g/ha [3]	pest or weed control at 62.5 g/ha [3]	pest or weed control at 250 g/ha [3]	pest or weed control at 62.5 g/ha [4]	pest or weed control at 250 g/ha [4]	pest or weed control at 15.625 g/ha [5]	pest or weed control at 62.5 g/ha [5]	pest or weed control at 250 g/ha [5]	pest or weed control at 15.625 g/ha [6]	pest or weed control at 250 g/ha [6]	pest or weed control at 15.625 g/ha [7]	pest or weed control at 62.5 g/ha [7]	pest or weed control at 250 g/ha [7]	plant injury at 15.625 g/ha (corn (Zea mays) [8])	other results
COc1ccc(OC)c([C@H]2CN(C)C(=O)[C@@H]2C(=O)Nc2ccccc2F)c1 (racemic) [Compound 1453]	20%	40%	90%	0%	0%	0%	0%	0%	0%	0%	20%	40%	60%	90%	0%	0%	0%	10%	10%	10%	pest or weed control at 62.5 g/ha [6]: 0%; plant injury at 62.5 g/ha (corn (Zea mays) [8]): 10%; plant injury at 250 g/ha (corn (Zea mays) [8]): 10%; pest or weed control at 15.625 g/ha [9]: 0%; pest or weed control at 62.5 g/ha [9]: 0%; pest or weed control at 250 g/ha [9]: 10%; pest or weed control at 15.625 g/ha [10]: 0%; pest or weed control at 62.5 g/ha [10]: 0%; pest or weed control at 250 g/ha [10]: 0%; pest or weed control at 15.625 g/ha [11]: 10%; pest or weed control at 62.5 g/ha [11]: 50%; pest or weed control at 250 g/ha [11]: 50%; pest or weed control at 15.625 g/ha [12]: 0%; pest or weed control at 62.5 g/ha [12]: 0%; pest or weed control at 250 g/ha [12]: 0%
CN1C[C@H](c2ccc(C(F)(F)F)cc2)[C@@H](C(=O)Nc2ccccc2S(C)(=O)=O)C1=O (racemic) [Compound 1459]	20%	60%	60%	0%	0%	0%	0%	0%	0%	0%	0%	40%	60%	80%	0%	60%	0%	10%	20%	10%	pest or weed control at 15.625 g/ha [4]: 0%; plant injury at 62.5 g/ha (corn (Zea mays) [8]): 10%; plant injury at 250 g/ha (corn (Zea mays) [8]): 10%; pest or weed control at 15.625 g/ha [9]: 0%; pest or weed control at 62.5 g/ha [9]: 0%; pest or weed control at 250 g/ha [9]: 20%; pest or weed control at 15.625 g/ha [10]: 0%; pest or weed control at 62.5 g/ha [10]: 0%; pest or weed control at 250 g/ha [10]: 0%; pest or weed control at 15.625 g/ha [11]: 10%; pest or weed control at 62.5 g/ha [11]: 60%; pest or weed control at 250 g/ha [11]: 60%; pest or weed control at 15.625 g/ha [12]: 30%; pest or weed control at 62.5 g/ha [12]: 40%; pest or weed control at 250 g/ha [12]: 40%
CN1C[C@@H](c2ccc(C(F)(F)F)cc2)[C@H](C(=O)Nc2csc(C(F)(F)F)n2)C1=O (racemic) [Compound 1587]	0%	0%	0%	0%	10%	0%	0%	0%	0%	0%	0%	0%	0%	0%	0%	10%	0%	20%	40%	0%	pest or weed control at 15.625 g/ha [4]: 0%; pest or weed control at 62.5 g/ha [6]: 0%; plant injury at 62.5 g/ha (corn (Zea mays) [8]): 0%; plant injury at 250 g/ha (corn (Zea mays) [8]): 0%; pest or weed control at 15.625 g/ha [9]: 0%; pest or weed control at 62.5 g/ha [9]: 0%; pest or weed control at 250 g/ha [9]: 40%; pest or weed control at 15.625 g/ha [10]: 0%; pest or weed control at 62.5 g/ha [10]: 0%; pest or weed control at 250 g/ha [10]: 0%; pest or weed control at 15.625 g/ha [11]: 0%; pest or weed control at 62.5 g/ha [11]: 20%; pest or weed control at 250 g/ha [11]: 60%; pest or weed control at 15.625 g/ha [12]: 0%; pest or weed control at 62.5 g/ha [12]: 10%; pest or weed control at 250 g/ha [12]: 70%
